According to publication PMC10408569, “Recruitment of hexahydroquinoline as anticancer scaffold targeting inhibition of wild and mutants EGFR (EGFR^WT, EGFR^T790M, and EGFR^L858R)” (Journal of Enzyme Inhibition and Medicinal Chemistry, 2023):

Columns and labels:
[1] = system: SK-MEL-5; test: NCI-60 anticancer screening (SRB); assay type: cell-based; conditions: Homo sapiens; SK-MEL-5, melanoma; one dose 10 μM; read-out: Growth Inhibition Percentage (GI %)
[2] = system: SF-268; test: NCI-60 anticancer screening (SRB); assay type: cell-based; conditions: Homo sapiens; SF-268, CNS cancer; one dose 10 μM; read-out: Growth Inhibition Percentage (GI %)
[3] = system: SNB-19; test: NCI-60 anticancer screening (SRB); assay type: cell-based; conditions: Homo sapiens; SNB-19, CNS cancer; one dose 10 μM; read-out: Growth Inhibition Percentage (GI %)
[4] = system: OVCAR-8; test: NCI-60 anticancer screening (SRB); assay type: cell-based; conditions: Homo sapiens; OVCAR-8, ovarian cancer; one dose 10 μM; read-out: Growth Inhibition Percentage (GI %)
[5] = system: RXF 393; test: NCI-60 anticancer screening (SRB); assay type: cell-based; conditions: Homo sapiens; RXF 393, renal cancer; one dose 10 μM; read-out: Growth Inhibition Percentage (GI %)
[6] = system: HL-60(TB); test: NCI-60 anticancer screening (SRB); assay type: cell-based; conditions: Homo sapiens, leukemia, one dose 10 μM, read-out: Growth Inhibition Percentage (GI %)
[7] = system: MOLT-4; test: NCI-60 anticancer screening (SRB); assay type: cell-based; conditions: Homo sapiens; MOLT-4, leukemia; one dose 10 μM; read-out: Growth Inhibition Percentage (GI %)
[8] = system: RPMI-8226; test: NCI-60 anticancer screening (SRB); assay type: cell-based; conditions: Homo sapiens; RPMI-8226, leukemia; one dose 10 μM; read-out: Growth Inhibition Percentage (GI %)
[9] = system: MDA-MB-435; test: NCI-60 anticancer screening (SRB); assay type: cell-based; conditions: Homo sapiens; MDA-MB-435, melanoma; one dose 10 μM; read-out: Growth Inhibition Percentage (GI %)
[10] = system: T-47D; test: NCI-60 anticancer screening (SRB); assay type: cell-based; conditions: Homo sapiens, T47D, breast cancer, one dose 10 μM, read-out: Growth Inhibition Percentage (GI %)
[11] = system: NCI-H522; test: NCI-60 anticancer screening (SRB); assay type: cell-based; conditions: Homo sapiens; NCI-H522, NSC lung cancer; one dose 10 μM; read-out: Growth Inhibition Percentage (GI %)
[12] = system: HCC-2998; test: NCI-60 anticancer screening (SRB); assay type: cell-based; conditions: Homo sapiens; HCC-2998, colon cancer; one dose 10 μM; read-out: Growth Inhibition Percentage (GI %)
[13] = system: NCI-H322M; test: NCI-60 anticancer screening (SRB); assay type: cell-based; conditions: Homo sapiens, NSC lung cancer, one dose 10 μM, read-out: Growth Inhibition Percentage (GI %)
[14] = system: HOP-62; test: NCI-60 anticancer screening (SRB); assay type: cell-based; conditions: Homo sapiens; HOP-62, NSC lung cancer; one dose 10 μM; read-out: Growth Inhibition Percentage (GI %)
[15] = system: ACHN; test: NCI-60 anticancer screening (SRB); assay type: cell-based; conditions: Homo sapiens, renal cancer, one dose 10 μM, read-out: Growth Inhibition Percentage (GI %)
[16] = system: OVCAR-5; test: NCI-60 anticancer screening (SRB); assay type: cell-based; conditions: Homo sapiens; OVCAR-5, ovarian cancer; one dose 10 μM; read-out: Growth Inhibition Percentage (GI %)
[17] = system: HCT-15; test: NCI-60 anticancer screening (SRB); assay type: cell-based; conditions: Homo sapiens; HCT-15, colon cancer; one dose 10 μM; read-out: Growth Inhibition Percentage (GI %)
[18] = system: A549/ATCC; test: NCI-60 anticancer screening (SRB); assay type: cell-based; conditions: Homo sapiens; A549/ATCC, NSC lung cancer; one dose 10 μM; read-out: Growth Inhibition Percentage (GI %)
[19] = system: SK-OV-3; test: NCI-60 anticancer screening (SRB); assay type: cell-based; conditions: Homo sapiens; SK-OV-3, ovarian cancer; one dose 10 μM; read-out: Growth Inhibition Percentage (GI %)
[20] = system: OVCAR-4; test: NCI-60 anticancer screening (SRB); assay type: cell-based; conditions: Homo sapiens; OVCAR-4, ovarian cancer; one dose 10 μM; read-out: Growth Inhibition Percentage (GI %)
[21] = system: SW-620; test: NCI-60 anticancer screening (SRB); assay type: cell-based; conditions: Homo sapiens; SW-620, colon cancer; one dose 10 μM; read-out: Growth Inhibition Percentage (GI %)
[22] = system: LOX IMVI; test: NCI-60 anticancer screening (SRB); assay type: cell-based; conditions: Homo sapiens, melanoma, one dose 10 μM, read-out: Growth Inhibition Percentage (GI %)
[23] = system: KM 12; test: NCI-60 anticancer screening (SRB); assay type: cell-based; conditions: Homo sapiens, KM12; KM 12, colon cancer; one dose 10 μM; read-out: Growth Inhibition Percentage (GI %)
[24] = system: SR; test: NCI-60 anticancer screening (SRB); assay type: cell-based; conditions: Homo sapiens, leukemia, one dose 10 μM, read-out: Growth Inhibition Percentage (GI %)
[25] = system: NCI-H226; test: NCI-60 anticancer screening (SRB); assay type: cell-based; conditions: Homo sapiens; NCI-H226, NSC lung cancer; one dose 10 μM; read-out: Growth Inhibition Percentage (GI %)
[26] = system: MDA-MB-468; test: NCI-60 anticancer screening (SRB); assay type: cell-based; conditions: Homo sapiens; MDA-MB-468, breast cancer; one dose 10 μM; read-out: Growth Inhibition Percentage (GI %)
[27] = system: K-562; test: NCI-60 anticancer screening (SRB); assay type: cell-based; conditions: Homo sapiens, K562; K-562, leukemia; one dose 10 μM; read-out: Growth Inhibition Percentage (GI %)
[28] = system: SNB-75; test: NCI-60 anticancer screening (SRB); assay type: cell-based; conditions: Homo sapiens; SNB-75, CNS cancer; one dose 10 μM; read-out: Growth Inhibition Percentage (GI %)
[29] = system: NCI 60 cancer cell lines; test: NCI-60 anticancer screening (SRB), whole panel; assay type: cell-based, human; conditions: mean across the NCI-60 panel; one dose 10 μM
[30] = system: UACC-257; test: NCI-60 anticancer screening (SRB); assay type: cell-based; conditions: Homo sapiens; UACC-257, melanoma; one dose 10 μM; read-out: Growth Inhibition Percentage (GI %)
[31] = system: SK-MEL-2; test: NCI-60 anticancer screening (SRB); assay type: cell-based; conditions: Homo sapiens; SK-MEL-2, melanoma; one dose 10 μM; read-out: Growth Inhibition Percentage (GI %)
[32] = system: OVCAR-3; test: NCI-60 anticancer screening (SRB); assay type: cell-based; conditions: Homo sapiens; OVCAR-3, ovarian cancer; one dose 10 μM; read-out: Growth Inhibition Percentage (GI %)

Row | Structure (SMILES) | inhibition at 10 µM [1] | inhibition at 10 µM [2] | inhibition at 10 µM [3] | inhibition at 10 µM [4] | inhibition at 10 µM [5] | inhibition at 10 µM [6] | inhibition at 10 µM [7] | inhibition at 10 µM [8] | inhibition at 10 µM [9] | inhibition at 10 µM [10] | inhibition at 10 µM [11] | inhibition at 10 µM [12] | inhibition at 10 µM [13] | inhibition at 10 µM [14] | inhibition at 10 µM [15] | inhibition at 10 µM [16] | inhibition at 10 µM [17] | inhibition at 10 µM [18] | melting point | inhibition at 10 µM [19] | also measured
1 | CCOC(=O)C1=C(N)N(c2ccc(C)cc2)C2=C(C(=O)CC(C)(C)C2)C1c1ccc(OC)cc1 (racemic) [8g, (±)-Ethyl 2-amino-4–(4-methoxyphenyl)-7,7-dimethyl-1–(4-methylphenyl)-5-oxo-1,4,5,6,7,8-hexahydroquinoline-3-carboxylate] | < 10% | < 10% | < 10% | < 10% | < 10% | < 10% | < 10% | < 10% | < 10% | < 10% | < 10% | < 10% | < 10% | < 10% | < 10% | < 10% | < 10% | < 10% | 181 to 183 °C | < 10% | inhibition at 10 µM [20]: < 10%; inhibition at 10 µM [21]: < 10%; inhibition at 10 µM [22]: < 10%; inhibition at 10 µM [23]: < 10%; inhibition at 10 µM [24]: < 10%; inhibition at 10 µM [25]: < 10%; inhibition at 10 µM [26]: < 10%; inhibition at 10 µM [27]: < 10%; inhibition at 10 µM [28]: 13%; GI % mean [29]: - ((-) = GI % mean less than 10); inhibition at 10 µM [30]: < 10%; inhibition at 10 µM [31]: < 10%; inhibition at 10 µM [32]: < 10%
2 | CCOC(=O)C1=C(N)N(c2ccc(Cl)cc2)C2=C(C(=O)CC(C)(C)C2)C1c1ccc(OC)cc1 (racemic) [8h, (±)-Ethyl 2-amino-1–(4-chlorophenyl)-4–(4-methoxyphenyl)-7,7-dimethyl-5-oxo-1,4,5,6,7,8-hexahydroquinoline-3-carboxylate] | < 10% | < 10% | < 10% | < 10% | < 10% | < 10% | < 10% | < 10% | < 10% | < 10% | < 10% | < 10% | < 10% | < 10% | < 10% | < 10% | < 10% | < 10% | 255 to 257 °C | < 10% | inhibition at 10 µM [20]: < 10%; inhibition at 10 µM [21]: < 10%; inhibition at 10 µM [22]: < 10%; inhibition at 10 µM [23]: < 10%; inhibition at 10 µM [24]: < 10%; inhibition at 10 µM [25]: < 10%; inhibition at 10 µM [26]: < 10%; inhibition at 10 µM [27]: < 10%; inhibition at 10 µM [28]: < 10%; GI % mean [29]: - ((-) = GI % mean less than 10); inhibition at 10 µM [30]: < 10%; inhibition at 10 µM [31]: < 10%; inhibition at 10 µM [32]: < 10%
